As usually defined, the IC50 is the concentration needed to halve the response being measured. Read a high IC50 as a need for much substance.

This experiment concerns WT Mtb Erdman strain. As to the kind of experiment: Microplate Alamar Blue Assay (MABA), Mtb growth inhibition. It is filed as cell-based, Mycobacterium tuberculosis. The note with it: Mycobacterium tuberculosis, ERDMAN, 168 h, Middlebrook 7H9 media, 7 days at 37° C. in 5% CO2.
Turning to `CCc1nc(NCC(O)Cc2ccccc2)c2cc(C)sc2n1` (stereo not shown) [Example 194, 1-((2-ethyl-6-methylthieno[2,3-d]pyrimidin-4-yl)amino)-3-phenylpropan-2-ol], the IC50 was > 10000 nM.
Take `CCc1nc(NCCc2ccccc2Cl)c2cc(C)sc2n1` [Example 9, N-(2-chlorophenethyl)-2-ethyl-6-methylthieno[2,3-d]pyrimidin-4-amine]: the IC50 stood at 2000 nM.
`Cc1cc2c(NCCCc3ccc(C(C)(C)C)cc3)nc(C(F)(F)F)nc2s1` [Example 206, N-(3-(4-(tert-butyl)phenyl)propyl)-6-methyl-2-(trifluoromethyl) thieno[2,3-d] pyrimidin-4-amine] registered a 50% inhibitory concentration (IC50) of 260 nM.
On to `Cc1cc2c(NCCCc3ccc(-c4ccnc(C(F)(F)F)c4)cc3)nc(-c3ccoc3)nc2s1` [Example 324, 2-(furan-3-yl)-6-methyl-N-(3-(4-[2-(trifluoromethyl)pyridin-4-yl]phenyl)propyl) thieno[2,3-d]pyrimidin-4-amine], for which 160 nM corresponded to half-maximal inhibition (IC50).
`Cc1cc2c(NCCCc3ccc(-c4ccc(Cl)cc4)cc3)nc(N(C)C)nc2s1` [Example 531, N4-(3-(4′-chloro-[1,1′-biphenyl]-4-yl)propyl)-N2,N2,6-trimethylthieno[2,3-d]pyrimidine-2,4-diamine]: the IC50 came to 12 nM.
Turning to `CCc1nc(NCCOc2ccccc2)c2cc(C)sc2n1` [Example 11, 2-ethyl-6-methyl-N-(2-phenoxyethyl)thieno [2,3-d]pyrimidin-4-amine], inhibition was half-maximal at 2800 nM (IC50).
The same measure for `CCc1nc(NCCCc2ccc(Oc3ccccc3)cc2)c2cc(C)sc2n1` [Example 201, 2-ethyl-6-methyl-N-(3-(4-phenoxyphenyl)propyl)thieno[2,3-d]pyrimidin-4-amine]: 610 nM; for `Cc1cc2c(NCCCc3ccccc3)nc(-n3ccnc3)nc2s1` [Example 131, 2-(1H-imidazol-1-yl)-6-methyl-N-(3-phenylpropyl)thieno [2,3-d]pyrimidin-4-amine]: 3000 nM; for `Cc1cc2c(N[C@@H]3C[C@H]3c3ccc(F)c(F)c3)nc(N3CC(F)(F)C3)nc2s1` [Example 524, 2-(3,3-difluoroazetidin-1-yl)-N-((1R,2S)-2-(3,4-difluorophenyl)cyclopropyl)-6-methylthieno[2,3-d]pyrimidin-4-amine]: > 10000 nM.
In turn, `Cc1ccc(-c2ccc(CCCNc3nc(-c4ccoc4)nc4sc(C)cc34)cc2)o1` [Example 335, 2-(furan-3-yl)-6-methyl-N-(3-[4-(5-methylfuran-2-yl)phenyl]propyl) thieno[2,3-d]pyrimidin-4-amine] showed an IC50 of 87 nM.
`COCc1nc(NCCCc2ccccc2)c2cc(C)sc2n1` [Example 81, 2-(methoxymethyl)-6-methyl-N-(3-phenylpropyl)thieno [2,3-d]pyrimidin-4-amine]: half-maximal inhibition (IC50) required 3000 nM.
Take `Cc1cc2c(NCCCc3ccc(OC(F)(F)F)cc3)nc(Cl)nc2s1` [Example 223, 2-chloro-6-methyl-N-(3-(4-(trifluoromethoxy)phenyl)propyl) thieno[2,3-d] pyrimidin-4-amine]: inhibition was half-maximal at 1700 nM (IC50).
In the case of `CCc1nc(NCCCc2ccc(-c3ccc(C#N)cc3)cc2)c2cc(C)sc2n1` [Example 303, 4′-(3-((2-ethyl-6-methylthieno[2,3-d]pyrimidin-4-yl)amino)propyl)-[1,1′-biphenyl]-4-carbonitrile], the IC50 was determined as 37 nM.
Consider `Cc1nc2c(NCCCc3ccccc3)nc(-c3ccc(F)cn3)nc2s1` [Example 147, 5-(5-fluoropyridin-2-yl)-2-methyl-N-(3-phenylpropyl)thiazolo [5,4-d]pyrimidin-7-amine], for which half-maximal inhibition (IC50) required 2100 nM.
Consider `CCc1nc(NCCCc2ccc(-c3ccc(F)cc3)cc2)c2cc(C)sc2n1` [Example 304, 2-ethyl-N-(3-(4′-fluoro-[1,1′-biphenyl]-4-yl)propyl)-6-methylthieno[2,3-d]pyrimidin-4-amine], for which the IC50 turned out to be 40 nM.
The molecule `CCc1nc(NCCCc2ccc(-c3ccc(C(F)(F)F)cc3)cc2)c2cc(C)sc2n1` [Example 311, 2-ethyl-6-methyl-N-(3-(4′-(trifluoromethyl)-[1,1′-biphenyl]-4-yl)propyl)thieno [2,3-d]pyrimidin-4-amine] came in with an IC50 of 27 nM.
As to `CCc1nc(NCCCc2ccc(-c3ccc(OC)cc3)cc2)c2cc(C)sc2n1` [Example 274, 2-ethyl-N-(3-(4′-methoxy-[1,1′-biphenyl]-4-yl)propyl)-6-methylthieno[2,3-d]pyrimidin-4-amine], the IC50 was found to be 76 nM.
As to `Cc1cc2c(NCCCc3ccccc3)nc(-c3cnsc3)nc2s1` [Example 119, 2-(isothiazol-4-yl)-6-methyl-N-(3-phenylpropyl)thieno [2,3-d]pyrimidin-4-amine], the IC50 was found to be 560 nM.
In turn, `CCc1nc(NCCCc2ccc(Cl)cc2)c2cc(C)sc2n1` [Example 257, N-(3-(4-chlorophenyl)propyl)-2-ethyl-6-methylthieno[2,3-d]pyrimidin-4-amine] gave an IC50 of 140 nM.
`Cc1cc2c(NCCCc3ccc(OC(F)(F)F)cc3)nc(-c3ccon3)nc2s1` [Example 121, 2-(isoxazol-3-yl)-6-methyl-N-(3-(4-(trifluoromethoxy)phenyl)propyl)thieno[2,3-d]pyrimidin-4-amine]: the IC50 was 130 nM.
In the case of `Cc1cc2c(NCCCc3ccc(-c4ccc(OC(F)(F)F)cc4)cc3)nc(-c3ccn(C)n3)nc2s1` [Example 450, 6-methyl-2-(1-methyl-1H-pyrazol-3-yl)-N-(3-(4′-(trifluoromethoxy)-[1,1′-biphenyl]-4-yl)propyl)thieno[2,3-d]pyrimidin-4-amine], it took 490 nM to reach half-maximal inhibition (IC50).
The same measure for `Cc1cc2c(N[C@H]3C[C@@H]3c3ccc(F)c(F)c3)nc(-c3ccc[nH]3)nc2s1` [Example 566, N-((1S,2R)-2-(3,4-difluorophenyl)cyclopropyl)-6-methyl-2-(1H-pyrrol-2-yl)thieno[2,3-d]pyrimidin-4-amine]: 1600 nM; for `Cc1cc2c(N[C@@H]3C[C@H]3c3ccc(F)c(F)c3)nc(Oc3ccccc3)nc2s1` [Example 153, N-((1R,2S)-2-(3,4-difluorophenyl)cyclopropyl)-6-methyl-2-phenoxythieno[2,3-d]pyrimidin-4-amine]: > 10000 nM; for `CCc1nc(NCCCc2ccc(OC)c(OC)c2)c2cc(C)sc2n1` [Example 22, N-(3-(3,4-dimethoxyphenyl)propyl)-2-ethyl-6-methylthieno[2,3-d]pyrimidin-4-amine]: 770 nM.
The figure for `Cc1cc2c(NCCCc3ccc4ccccc4c3)nc(C(F)(F)F)nc2s1` [Example 232, 6-methyl-N-(3-(naphthalen-2-yl)propyl)-2-(trifluoromethyl) thieno[2,3-d] pyrimidin-4-amine] is 1300 nM; for `Cc1cc2c(NCCC(=O)Nc3ccccc3)nc(C(F)(F)F)nc2s1` [Example 182, 3-((6-methyl-2-(trifluoromethyl)thieno[2,3-d]pyrimidin-4-yl)amino)-N-phenylpropanamide] it is > 10000 nM.
Take `Cc1cc2c(N[C@H]3C[C@@H]3c3ccccc3)nc(C(F)(F)F)nc2s1` [Example 168, 6-methyl-N-((1S,2R)-2-phenylcyclopropyl)-2-(trifluoromethyl) thieno[2,3-d] pyrimidin-4-amine]: the IC50 stood at 3200 nM.
`CCc1nc(NCCCc2cccc(OC(F)(F)F)c2)c2cc(C)sc2n1` [Example 255, 2-ethyl-6-methyl-N-(3-(3-(trifluoromethoxy)phenyl)propyl)thieno [2,3-d]pyrimidin-4-amine] displayed a concentration for half-maximal inhibition (IC50) of 570 nM.
As to `Cc1cc2c(NCCCc3ccc(-c4ccc([N+](=O)[O-])cc4)cc3)nc(-c3ccoc3)nc2s1` [Example 328, 2-(furan-3-yl)-6-methyl-N-(3-(4′-nitro-[1,1′-biphenyl]-4-yl)propyl)thieno [2,3-d]pyrimidin-4-amine], the half-inhibitory concentration (IC50) was < 1 nM.
The figure for `Cc1cc2c(NCCCc3ccccc3)nc(-c3cscn3)nc2s1` [Example 128, 6-methyl-N-(3-phenylpropyl)-2-(thiazol-4-yl)thieno[2,3-d]pyrimidin-4-amine] is 660 nM; for `Cc1cc2c(NCCCc3ccc(-c4ccc(S(C)(=O)=O)cn4)cc3)nc(-c3ccoc3)nc2s1` [Example 398, 2-(furan-3-yl)-N-(3-[4-(5-methanesulfonyl-pyridin-2-yl)phenyl]propyl)-6-methylthieno [2,3-d]pyrimidin-4-amine] it is > 460 nM.
The molecule `Cc1cc2c(NCCCc3ccc(-c4ccc(OC(F)(F)F)cc4)cc3)nc(N3CCCC3)nc2s1` [Example 528, 6-methyl-2-(pyrrolidin-1-yl)-N-(3-(4′-(trifluoromethoxy)-[1,1′-biphenyl]-4-yl)propyl)thieno[2,3-d]pyrimidin-4-amine] gave an IC50 of 18 nM.
`Cc1cc2c(N[C@@H]3C[C@H]3c3ccc(F)c(F)c3)nc(-c3ccnc(N(C)C)c3)nc2s1` [Example 491, N-((1R,2S)-2-(3,4-difluorophenyl)cyclopropyl)-2-(2-(dimethylamino)pyridin-4-yl)-6-methylthieno[2,3-d]pyrimidin-4-amine] gave an IC50 of 4400 nM.
The molecule `CCc1nc(NCCCc2ccc(-c3cnc(C(F)(F)F)cn3)cc2)c2cc(C)sc2n1` [Example 369, 2-ethyl-6-methyl-N-(3-(4-(5-(trifluoromethyl)pyrazin-2-yl)phenyl)propyl)thieno[2,3-d]pyrimidin-4-amine] gave an IC50 of 21 nM.
`Cc1cc2c(NCCCc3ccc(-c4ccc(OC(F)(F)F)cc4)cc3)nc(Br)nc2s1` [Example 598, 2-bromo-6-methyl-N-(3-(4′-(trifluoromethoxy)-[1,1′-biphenyl]-4-yl)propyl)thieno[2,3-d]pyrimidin-4-amine] gave an IC50 of 81 nM.
As to `Cc1cc2c(NCCCc3ccc(OC(F)(F)F)cc3)nc(-n3ccnn3)nc2s1` [Example 587, 6-methyl-2-(1H-1,2,3-triazol-1-yl)-N-(3-(4-(trifluoromethoxy)phenyl)propyl)thieno[2,3-d]pyrimidin-4-amine], half-maximal inhibition (IC50) was put at 1100 nM.
In turn, `CCCc1nc(NCCCc2ccccc2)c2cc(C)sc2n1` [Example 54, 6-methyl-N-(3-phenylpropyl)-2-propylthieno[2,3-d]pyrimidin-4-amine] registered an IC50 of 310 nM.

Source of the values: patent US20240279236A1, “COMPOUNDS AND METHODS OF TREATING TUBERCULOSIS” (Fimbrion Therapeutics, Inc., priority 2021, published 2024).
